Results: ChEMBL document CHEMBL1201862, “PubChem BioAssay data set” (2004)
Activity calls are given as the source filed them.

Legend:
[1] = system: Streptococcus; experiment: Luminescence Microorganism-Based Dose Response Follow up to Identify Compounds Cytotoxic to Streptococcus. [Related pubchem assays: 1677 (Project Summary), 1915, 1914, 1902 (Retest at Dose), 1900 (Counter Screen), 1662 (Primary HTS)]; assay type: functional, organism-based
[2] = biological target: T1, Streptokinase A (Streptococcus pyogenes serotype M1, UniProt P10520); experiment: S. pyogenes streptokinase expression inhibitors, potency, dose response, plasminogen activation absorbance, OD405 (AID 1914); assay type: functional, Streptococcus pyogenes M1 GAS;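 also: secreted streptokinase activity via plasminogen activation per viability signal from cell pellet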
T1 sequence (P10520 whole entry): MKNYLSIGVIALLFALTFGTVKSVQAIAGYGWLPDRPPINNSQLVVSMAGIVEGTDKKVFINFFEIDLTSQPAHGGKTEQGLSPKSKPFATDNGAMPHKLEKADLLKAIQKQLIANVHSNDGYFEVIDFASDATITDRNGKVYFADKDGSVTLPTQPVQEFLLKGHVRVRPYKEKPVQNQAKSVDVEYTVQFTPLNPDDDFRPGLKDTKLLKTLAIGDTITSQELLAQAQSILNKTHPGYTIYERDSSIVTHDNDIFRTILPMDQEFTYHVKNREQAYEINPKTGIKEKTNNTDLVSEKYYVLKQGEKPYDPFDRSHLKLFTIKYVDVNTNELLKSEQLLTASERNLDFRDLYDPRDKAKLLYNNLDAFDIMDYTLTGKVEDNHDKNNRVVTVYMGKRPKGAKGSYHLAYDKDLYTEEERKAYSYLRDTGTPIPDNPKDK

[3] = system: Streptococcus sp. 'group A'; experiment: growth inhibition of control SK(-) GAS strain, dose response, counter-screen for streptokinase expression inhibitor project, luminescence, kanamycin, BacTiterGlo, confirmation (AID 1900); assay type: functional, organism-based
[4] = system: Streptococcus; experiment: Group A Streptococcus viability loss, dose response, counter-screen for streptokinase expression inhibitor project, luminescence, BacTiterGlo (AID 1915); assay type: functional, organism-based;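 also: potency for reduction of bacterial viability or growth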
[5] = system: Staphylococcus aureus; experiment: Inhibitors of Bacterial Quorum Sensing Structure Activity Relationship (SAR) Analysis: Dose Response Assay. [Related pubchem assays: 700, 527 ]; assay type: functional, organism-based
[6] = biological target: T2, Rac GTPase-activating protein 1 (Homo sapiens, UniProt Q9H0H5); experiment: MgcRacGAP GTPase-activating activity inhibitors, confirmation, biochemical, ADP Hunter fluorescence, primary and confirmatory (AID 624330); assay type: functional
T2 sequence (Q9H0H5 whole entry): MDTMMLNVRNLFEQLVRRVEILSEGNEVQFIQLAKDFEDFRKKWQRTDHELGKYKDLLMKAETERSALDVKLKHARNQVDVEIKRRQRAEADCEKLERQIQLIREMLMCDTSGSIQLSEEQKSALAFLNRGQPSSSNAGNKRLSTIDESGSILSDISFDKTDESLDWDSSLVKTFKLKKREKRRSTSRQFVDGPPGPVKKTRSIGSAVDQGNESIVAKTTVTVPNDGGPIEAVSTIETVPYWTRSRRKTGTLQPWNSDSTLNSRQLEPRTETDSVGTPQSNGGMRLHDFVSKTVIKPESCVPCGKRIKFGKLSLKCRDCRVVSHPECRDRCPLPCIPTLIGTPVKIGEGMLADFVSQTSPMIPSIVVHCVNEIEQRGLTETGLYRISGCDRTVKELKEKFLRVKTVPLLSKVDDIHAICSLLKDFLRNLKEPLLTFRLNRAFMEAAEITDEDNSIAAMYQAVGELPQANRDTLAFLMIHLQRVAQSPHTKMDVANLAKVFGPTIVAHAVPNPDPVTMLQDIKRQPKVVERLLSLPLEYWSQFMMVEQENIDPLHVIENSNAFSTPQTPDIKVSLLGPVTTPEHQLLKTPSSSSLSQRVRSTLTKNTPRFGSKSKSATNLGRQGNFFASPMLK

[7] = biological target: T3, Endoribonuclease toxin MazF (Escherichia coli K-12, UniProt P0AE70); experiment: fluorescent RNA oligo signal without MazF, dose response, counter-screen for MazEF activator project, biochemical, fluorescence, single-stranded RNase substrate (AID 588502); assay type: functional
T3 sequence (P0AE70 whole entry): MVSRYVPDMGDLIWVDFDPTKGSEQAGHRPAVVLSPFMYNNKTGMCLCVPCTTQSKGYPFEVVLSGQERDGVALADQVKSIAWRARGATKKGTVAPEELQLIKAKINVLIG

[8] = biological target: Cyclin-dependent kinase 5/CDK5 activator 1 (Homo sapiens, UniProt Q00535); experiment: CDK5/p35 kinase inhibitors, dose response, biochemical, cherry-picked samples, set 2 (AID 504545)
[9] = biological target: Dual specificity tyrosine-phosphorylation-regulated kinase 1A (Rattus norvegicus, UniProt Q63470); assay type: biochemical, Homo sapiens
[10] = biological target: Ras and Rab interactor 1/Tyrosine-protein kinase ABL1 (Homo sapiens, UniProt P00519+Q13671); assay type: functional;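 also: biochemical TR-FRET dose-response test measuring inhibition of binding between Rin1 and Abl proteins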
[11] = biological target: T3, Endoribonuclease toxin MazF; experiment: MazF toxin RNase activators, dose response, biochemical, fluorescence, single-stranded RNA substrate, uHTS hits (AID 588481); assay type: functional
[12] = biological target: T4, Zinc finger protein mex-5 (Caenorhabditis elegans, UniProt Q9XUB2); experiment: MEX-5/TCR-2 RNA interaction inhibitors, dose response, biochemical, C. elegans, fluorescence polarization (AID 1960)
T4 sequence (Q9XUB2 whole entry): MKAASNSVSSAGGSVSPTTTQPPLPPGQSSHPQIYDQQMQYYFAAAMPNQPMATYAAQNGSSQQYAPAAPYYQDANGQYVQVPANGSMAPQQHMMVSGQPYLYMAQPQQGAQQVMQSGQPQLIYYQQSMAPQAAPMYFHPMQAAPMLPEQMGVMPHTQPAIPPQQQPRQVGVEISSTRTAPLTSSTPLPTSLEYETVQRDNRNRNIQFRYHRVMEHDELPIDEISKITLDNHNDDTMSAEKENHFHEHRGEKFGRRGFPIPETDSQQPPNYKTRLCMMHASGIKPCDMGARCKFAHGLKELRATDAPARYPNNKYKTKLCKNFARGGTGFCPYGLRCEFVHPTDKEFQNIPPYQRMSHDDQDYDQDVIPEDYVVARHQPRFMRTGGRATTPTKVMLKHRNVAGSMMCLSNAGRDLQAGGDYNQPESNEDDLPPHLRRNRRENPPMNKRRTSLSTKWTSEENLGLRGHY

[13] = biological target: Transitional endoplasmic reticulum ATPase (Homo sapiens, UniProt P55072, C522A); experiment: C522A mutant p97 ATPase inhibitors, dose response, counter-screen for p97 inhibitor project, biochemical, luminescence (AID 1544)
[14] = biological target: T5, RNA-binding protein pos-1 (Caenorhabditis elegans, UniProt G5EF15); experiment: inhibitors of POS-1/mex-3 RNA binding, dose response, biochemical, fluorescence polarization (AID 1964);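 also: purified POS-1 fused to maltose binding protein made in E. coli; potency of compounds blocking POS-1 binding to fluorescent RNA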
T5 sequence (G5EF15 whole entry): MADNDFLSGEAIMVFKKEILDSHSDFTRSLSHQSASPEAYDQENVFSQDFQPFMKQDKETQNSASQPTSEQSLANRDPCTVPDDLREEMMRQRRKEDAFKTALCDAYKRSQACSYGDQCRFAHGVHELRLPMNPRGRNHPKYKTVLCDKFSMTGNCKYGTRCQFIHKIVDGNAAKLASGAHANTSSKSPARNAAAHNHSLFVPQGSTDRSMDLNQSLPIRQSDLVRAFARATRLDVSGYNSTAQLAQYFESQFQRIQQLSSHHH

[15] = biological target: Transitional endoplasmic reticulum ATPase (Homo sapiens, UniProt P55072); experiment: p97 ATPase inhibitors, dose response, biochemical (AID 1534)
[16] = biological target: T6, Short transient receptor potential channel 4 (Mus musculus, UniProt Q9QUQ5); experiment: mouse TRPC4 channel inhibitors, dose response, cell-based, HEK293 TRPC4/mu-opioid, Fluo-4 calcium (AID 434942); assay type: functional;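 also: potency of inhibitors blocking the TRPC4 calcium response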
T6 sequence (Q9QUQ5 whole entry): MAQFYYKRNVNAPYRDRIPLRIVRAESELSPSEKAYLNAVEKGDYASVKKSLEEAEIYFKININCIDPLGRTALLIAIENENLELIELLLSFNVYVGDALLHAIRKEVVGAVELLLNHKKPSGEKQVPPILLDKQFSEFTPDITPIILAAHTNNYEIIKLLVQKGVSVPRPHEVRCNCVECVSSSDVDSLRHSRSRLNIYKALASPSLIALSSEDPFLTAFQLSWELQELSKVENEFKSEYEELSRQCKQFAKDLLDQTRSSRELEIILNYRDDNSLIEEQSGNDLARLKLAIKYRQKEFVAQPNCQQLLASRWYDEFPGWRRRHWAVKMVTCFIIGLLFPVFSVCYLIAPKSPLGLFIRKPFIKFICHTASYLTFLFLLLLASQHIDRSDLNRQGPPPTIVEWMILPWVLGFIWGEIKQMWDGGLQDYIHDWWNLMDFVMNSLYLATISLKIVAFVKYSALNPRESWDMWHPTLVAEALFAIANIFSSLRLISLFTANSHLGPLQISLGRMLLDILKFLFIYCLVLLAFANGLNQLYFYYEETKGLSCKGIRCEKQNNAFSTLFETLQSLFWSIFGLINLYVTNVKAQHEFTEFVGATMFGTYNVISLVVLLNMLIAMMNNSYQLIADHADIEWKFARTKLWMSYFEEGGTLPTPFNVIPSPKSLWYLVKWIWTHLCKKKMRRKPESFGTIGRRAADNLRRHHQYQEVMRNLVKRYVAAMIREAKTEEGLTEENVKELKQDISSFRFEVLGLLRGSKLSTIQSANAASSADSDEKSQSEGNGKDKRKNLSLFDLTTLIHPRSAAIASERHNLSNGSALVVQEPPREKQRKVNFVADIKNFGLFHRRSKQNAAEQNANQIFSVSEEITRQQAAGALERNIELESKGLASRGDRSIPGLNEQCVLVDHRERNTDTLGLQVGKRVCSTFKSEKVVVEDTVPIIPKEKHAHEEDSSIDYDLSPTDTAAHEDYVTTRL

[17] = biological target: FAD-linked sulfhydryl oxidase ALR (Homo sapiens, UniProt P55789); experiment: inhibitors of human ALR sulfhydryl oxidase, dose response, biochemical, H2O2 detection, luminescence, cherry-pick (AID 493248)
[18] = HeLa cell cytotoxicity, dose response, cytotoxicity control for MgcRacGAP inhibitor project (AID 624300); assay type: functional

Chain of FAD-linked sulfhydryl oxidase ALR (P55789 whole entry): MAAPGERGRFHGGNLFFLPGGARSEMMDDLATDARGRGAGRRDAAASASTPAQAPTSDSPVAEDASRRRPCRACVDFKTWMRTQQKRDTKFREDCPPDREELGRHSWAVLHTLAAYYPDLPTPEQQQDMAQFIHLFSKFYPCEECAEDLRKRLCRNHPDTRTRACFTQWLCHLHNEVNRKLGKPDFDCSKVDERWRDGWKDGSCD
Chain of Ras and Rab interactor 1/Tyrosine-protein kinase ABL1 (P00519 whole entry): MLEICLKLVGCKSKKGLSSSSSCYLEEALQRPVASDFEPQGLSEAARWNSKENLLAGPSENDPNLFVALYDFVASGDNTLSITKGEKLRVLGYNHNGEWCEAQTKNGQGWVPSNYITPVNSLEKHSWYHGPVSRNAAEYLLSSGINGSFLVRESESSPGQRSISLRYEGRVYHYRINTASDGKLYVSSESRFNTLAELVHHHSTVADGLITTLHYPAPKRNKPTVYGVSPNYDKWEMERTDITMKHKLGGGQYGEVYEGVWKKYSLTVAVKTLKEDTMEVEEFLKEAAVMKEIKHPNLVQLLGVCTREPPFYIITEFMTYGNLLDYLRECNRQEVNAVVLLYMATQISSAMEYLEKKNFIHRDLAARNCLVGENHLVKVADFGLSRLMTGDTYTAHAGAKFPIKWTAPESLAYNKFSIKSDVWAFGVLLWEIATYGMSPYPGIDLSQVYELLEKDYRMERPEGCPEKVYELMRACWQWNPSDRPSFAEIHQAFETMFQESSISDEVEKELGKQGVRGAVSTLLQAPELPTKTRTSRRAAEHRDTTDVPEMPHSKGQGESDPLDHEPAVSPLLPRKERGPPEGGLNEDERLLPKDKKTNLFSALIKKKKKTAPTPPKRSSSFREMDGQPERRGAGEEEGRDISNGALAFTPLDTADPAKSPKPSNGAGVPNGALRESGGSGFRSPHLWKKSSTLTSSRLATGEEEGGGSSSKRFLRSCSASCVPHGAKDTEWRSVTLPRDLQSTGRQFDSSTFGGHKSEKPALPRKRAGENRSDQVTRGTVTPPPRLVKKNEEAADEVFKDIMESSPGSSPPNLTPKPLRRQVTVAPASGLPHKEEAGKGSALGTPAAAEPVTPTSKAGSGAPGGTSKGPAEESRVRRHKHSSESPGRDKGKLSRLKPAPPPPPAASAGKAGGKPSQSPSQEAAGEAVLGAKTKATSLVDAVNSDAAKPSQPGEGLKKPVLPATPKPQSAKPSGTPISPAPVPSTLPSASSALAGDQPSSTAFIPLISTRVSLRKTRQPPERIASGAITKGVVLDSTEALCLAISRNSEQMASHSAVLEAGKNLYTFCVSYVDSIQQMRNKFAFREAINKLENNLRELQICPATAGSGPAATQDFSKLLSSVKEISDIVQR
Chain of Ras and Rab interactor 1/Tyrosine-protein kinase ABL1 (Q13671 whole entry): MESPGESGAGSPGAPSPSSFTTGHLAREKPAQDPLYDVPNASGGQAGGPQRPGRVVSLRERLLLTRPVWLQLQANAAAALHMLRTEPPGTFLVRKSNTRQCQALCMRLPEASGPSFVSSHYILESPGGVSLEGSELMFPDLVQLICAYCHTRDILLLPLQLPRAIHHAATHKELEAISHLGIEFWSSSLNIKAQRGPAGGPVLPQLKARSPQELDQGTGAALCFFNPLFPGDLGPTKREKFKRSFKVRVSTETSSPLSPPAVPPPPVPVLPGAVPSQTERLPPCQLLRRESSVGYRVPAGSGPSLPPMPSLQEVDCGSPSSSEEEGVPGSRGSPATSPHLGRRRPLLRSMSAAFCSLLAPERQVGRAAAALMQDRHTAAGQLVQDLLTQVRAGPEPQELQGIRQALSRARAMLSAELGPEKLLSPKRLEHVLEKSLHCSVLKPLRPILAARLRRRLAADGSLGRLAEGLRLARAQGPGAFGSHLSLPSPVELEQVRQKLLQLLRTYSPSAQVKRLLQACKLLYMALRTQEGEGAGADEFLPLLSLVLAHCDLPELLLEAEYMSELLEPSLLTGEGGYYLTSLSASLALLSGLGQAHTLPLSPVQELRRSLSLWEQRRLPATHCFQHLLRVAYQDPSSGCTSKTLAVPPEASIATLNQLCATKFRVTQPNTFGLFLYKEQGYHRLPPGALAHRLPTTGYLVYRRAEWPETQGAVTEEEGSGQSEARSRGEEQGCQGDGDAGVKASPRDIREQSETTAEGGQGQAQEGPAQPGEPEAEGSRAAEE
Chain of Transitional endoplasmic reticulum ATPase (Homo sapiens, UniProt P55072, C522A) (P55072 2-806 C522A limits assumed): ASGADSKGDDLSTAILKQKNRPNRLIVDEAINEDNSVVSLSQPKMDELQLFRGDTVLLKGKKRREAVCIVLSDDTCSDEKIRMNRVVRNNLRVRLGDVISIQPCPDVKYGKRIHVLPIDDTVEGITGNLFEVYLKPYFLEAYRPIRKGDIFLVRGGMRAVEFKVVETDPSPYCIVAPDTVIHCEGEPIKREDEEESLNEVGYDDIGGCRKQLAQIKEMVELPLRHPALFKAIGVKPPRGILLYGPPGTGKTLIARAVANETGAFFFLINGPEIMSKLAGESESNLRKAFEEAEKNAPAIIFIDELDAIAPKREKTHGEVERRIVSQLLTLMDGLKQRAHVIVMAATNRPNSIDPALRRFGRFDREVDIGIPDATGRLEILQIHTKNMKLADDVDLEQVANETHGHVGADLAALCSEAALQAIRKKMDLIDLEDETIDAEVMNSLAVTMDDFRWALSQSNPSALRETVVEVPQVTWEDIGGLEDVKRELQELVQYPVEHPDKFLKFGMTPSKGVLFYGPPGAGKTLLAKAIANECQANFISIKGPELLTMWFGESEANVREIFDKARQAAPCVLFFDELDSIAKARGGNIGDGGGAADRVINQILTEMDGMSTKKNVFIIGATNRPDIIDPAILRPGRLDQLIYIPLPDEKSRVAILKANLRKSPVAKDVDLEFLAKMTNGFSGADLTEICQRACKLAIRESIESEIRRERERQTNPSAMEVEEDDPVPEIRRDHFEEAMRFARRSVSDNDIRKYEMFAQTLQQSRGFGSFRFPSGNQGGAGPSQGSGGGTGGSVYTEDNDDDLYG
Chain of Cyclin-dependent kinase 5/CDK5 activator 1 (Q00535 whole entry): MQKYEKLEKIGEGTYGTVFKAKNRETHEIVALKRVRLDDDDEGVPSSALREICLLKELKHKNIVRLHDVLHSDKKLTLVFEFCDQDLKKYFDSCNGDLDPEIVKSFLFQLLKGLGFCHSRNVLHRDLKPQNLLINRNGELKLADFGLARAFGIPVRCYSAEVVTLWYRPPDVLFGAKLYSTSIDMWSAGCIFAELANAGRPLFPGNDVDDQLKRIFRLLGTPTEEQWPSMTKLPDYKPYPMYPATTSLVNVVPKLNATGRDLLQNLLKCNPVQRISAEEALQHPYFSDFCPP
Chain of Cyclin-dependent kinase 5/CDK5 activator 1 (Q15078 whole entry, further chain): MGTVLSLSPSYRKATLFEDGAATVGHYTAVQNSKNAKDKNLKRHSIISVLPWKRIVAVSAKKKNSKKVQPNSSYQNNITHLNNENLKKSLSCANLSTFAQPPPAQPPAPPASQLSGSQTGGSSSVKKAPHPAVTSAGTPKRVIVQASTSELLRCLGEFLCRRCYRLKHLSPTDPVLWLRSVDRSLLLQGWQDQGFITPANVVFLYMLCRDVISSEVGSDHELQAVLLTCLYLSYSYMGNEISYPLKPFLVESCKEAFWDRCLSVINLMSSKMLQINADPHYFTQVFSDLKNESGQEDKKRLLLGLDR
Chain of Transitional endoplasmic reticulum ATPase (Homo sapiens, UniProt P55072) (P55072 whole entry): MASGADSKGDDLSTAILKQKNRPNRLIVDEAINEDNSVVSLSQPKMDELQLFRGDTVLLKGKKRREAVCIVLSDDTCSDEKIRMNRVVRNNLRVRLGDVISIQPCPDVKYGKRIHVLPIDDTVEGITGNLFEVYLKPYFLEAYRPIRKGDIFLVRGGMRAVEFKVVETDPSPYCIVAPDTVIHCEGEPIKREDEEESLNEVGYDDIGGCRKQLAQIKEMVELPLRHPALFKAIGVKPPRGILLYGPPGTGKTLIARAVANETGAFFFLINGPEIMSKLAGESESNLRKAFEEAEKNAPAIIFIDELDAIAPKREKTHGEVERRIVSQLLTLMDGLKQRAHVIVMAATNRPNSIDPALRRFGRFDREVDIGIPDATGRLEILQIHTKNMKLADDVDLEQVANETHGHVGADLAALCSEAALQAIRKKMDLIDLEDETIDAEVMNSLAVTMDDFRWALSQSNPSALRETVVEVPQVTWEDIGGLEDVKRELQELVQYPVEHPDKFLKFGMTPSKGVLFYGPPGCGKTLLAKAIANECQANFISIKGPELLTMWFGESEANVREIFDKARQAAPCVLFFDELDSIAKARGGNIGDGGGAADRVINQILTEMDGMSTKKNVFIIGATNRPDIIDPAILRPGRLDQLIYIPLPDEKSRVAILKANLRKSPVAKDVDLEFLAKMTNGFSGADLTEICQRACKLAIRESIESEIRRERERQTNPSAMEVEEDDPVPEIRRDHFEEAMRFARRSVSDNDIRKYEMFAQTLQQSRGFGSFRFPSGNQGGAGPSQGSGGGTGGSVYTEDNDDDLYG

With `FC(F)(F)c1nc(N2CCN(c3ccccc3)CC2)nc2c1CCCCC2` the EC50 [1] was > 500 µM (not active), the EC50 [2] was 5.5 µM (active) and the EC50 [3] was 2.83 µM (active). The EC50 [4] was > 150 µM (not active).
In the case of `COc1ccc(S(=O)(=O)c2nnn3c2[nH]c(=O)c2ccccc23)cc1`, the IC50 [5] was 563 nM (active).
For `O=c1c(O)c(-c2ccc(O)c(O)c2)oc2cc(O)ccc12`, the IC50 [6] was 45.7 µM (active), the EC50 [7] was > 99 µM (inactive) and the AC50 [8] was 1.69 µM (active). The AC50 [9] was 248 nM (active), the IC50 [10] was > 73.5 µM (inactive) and the EC50 [11] was > 99 µM (inactive).
With `NS(=O)(=O)c1ccc(Nc2nc(-c3ccc(O)cc3O)cs2)cc1` the EC50 [12] was 9.7 µM (active), the IC50 [6] was 44.5 µM (active) and the AC50 [9] was 1940 nM (active). For the same molecule, the IC50 [13] was > 50 µM (not active), the EC50 [14] was 17.1 µM (active) and the IC50 [15] was 24.2 µM (not active). The EC50 [16] was 1.33 µM (active), the AC50 [17] was 3.12 µM (active) and the CC50 [18] was 100 µM (active).
